Reference: patent US12290601B2, “Pharmaceutical composition comprising axitinib” (Synthon B.V., priority 2019, dated 2025)
Read-outs that look alike come from different tables or passages of the source. One block for each compound: values may come before it.

Key:
[1] = Photo-stability of crystalline forms; type: physicochemical; details: versus form XLI
[2] = Aqueous solubility; type: physicochemical; details: versus form XLI
[3] = among polymorphic forms; cited from earlier work
[4] = cited from earlier work

- photo-stability compared to crystalline axitinib form XLI [1]: less photo-stable
- aqueous solubility, fold higher compared to crystalline axitinib form XLI [2]: 2-3 fold
Compound: CNC(=O)c1ccccc1Sc1ccc2c(/C=C/c3ccccn3)n[nH]c2c1 [axitinib form IV, N-methyl-2-({3-[(E)-2-pyridin-2-ylethenyl]-1H-indazol-6-yl}sulfanyl)benzamide]

Compound: CNC(=O)c1ccccc1Sc1ccc2c(/C=C/c3ccccn3)n[nH]c2c1 [Form XLI, N-methyl-2-({3-[(E)-2-pyridin-2-ylethenyl]-1H-indazol-6-yl}sulfanyl)benzamide]
- thermodynamic stability [3]: most thermodynamically stable

Compound: CNC(=O)c1ccccc1Sc1ccc2c(/C=C/c3ccccn3)n[nH]c2c1 [Axitinib, N-methyl-2-({3-[(E)-2-pyridin-2-ylethenyl]-1H-indazol-6-yl}sulfanyl)benzamide]
- solubility [4]: low solubility
- solubility ([4]; gastric, pH 1.7): highly soluble
